Experimental data reported in PubChem BioAssay AID1963875 (Molecular Pharmacology Branch, DTP, NCI, 2024).

Tested on: KRAS-mutant PDC complex spheroid viability
Test: Anticancer human tumor 186277-243-T-J2-PDC patient-derived colon adenocarcinoma cell line growth inhibition [KRAS2]
Settings: for IC50: curve of first compound; for viability, T/C: stronger effect = lower value
Method in brief: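 KRAS-mutant tumor cells were grown as spheroids with HUVEC endothelial cells and human MSCs as stroma. Targeted agents were tested alone and with KRAS pathway inhibitors. Doses started at or near clinical Cmax, or 10 microM, descending half-log.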
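Wherever viability, T/C is given: viability read after seven days of compound exposure; 100% = DMSO vehicle-treated spheroids so lower means less viable.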

Work on `CC(=O)Nc1cccc(-n2c(=O)n(C3CC3)c(=O)c3c(Nc4ccc(I)cc4F)n(C)c(=O)c(C)c32)c1` + C=CC(=O)N1CCN(c2nc(OCC3CCCN3C)nc3c2CCN(c2cccc4cccc(C)c24)C3)CC1CC#N yielded an IC50 (second compound 0.0316 µM) of 0.749 nM, an IC50 (second compound 0.1 µM) of 0.668 nM and an IC50 (second compound 0.316 µM) of 0.67 nM. For the same compound, the IC50 (second compound 1 µM) was 0.483 nM, the IC50 (second compound 3.16 µM) was under 0.1 nM and the viability, T/C (second compound 0.0316 µM, first compound 0.0001 µM) was 98.2%. The viability, T/C (second compound 0.0316 µM, first compound 0.000316 µM) was 115%, the viability, T/C (second compound 0.0316 µM, first compound 0.001 µM) was 30.9% and the viability, T/C (second compound 0.0316 µM, first compound 0.00316 µM) was 7.61%. It also gave a viability, T/C (second compound 0.0316 µM, first compound 0.01 µM) of 2.46%, a viability, T/C (second compound 0.0316 µM, first compound 0.0316 µM) of 1.21% and a viability, T/C (second compound 0.1 µM, first compound 0.0001 µM) of 88.8%. For the same compound, the viability, T/C (second compound 0.1 µM, first compound 0.000316 µM) was 103%, the viability, T/C (second compound 0.1 µM, first compound 0.001 µM) was 25.1% and the viability, T/C (second compound 0.1 µM, first compound 0.00316 µM) was 6.76%. The viability, T/C (second compound 0.1 µM, first compound 0.01 µM) was 2.36%, the viability, T/C (second compound 0.1 µM, first compound 0.0316 µM) was 1.26% and the viability, T/C (second compound 0.316 µM, first compound 0.0001 µM) was 103%. It also gave a viability, T/C (second compound 0.316 µM, first compound 0.000316 µM) of 99%, a viability, T/C (second compound 0.316 µM, first compound 0.001 µM) of 23.8% and a viability, T/C (second compound 0.316 µM, first compound 0.00316 µM) of 5.26%. It also gave a viability, T/C (second compound 0.316 µM, first compound 0.01 µM) of 2.18%, a viability, T/C (second compound 0.316 µM, first compound 0.0316 µM) of 1.26% and a viability, T/C (second compound 1 µM, first compound 0.0001 µM) of 105%. For the same compound, the viability, T/C (second compound 1 µM, first compound 0.000316 µM) was 74%, the viability, T/C (second compound 1 µM, first compound 0.001 µM) was 8.66% and the viability, T/C (second compound 1 µM, first compound 0.00316 µM) was 2.88%. The viability, T/C (second compound 1 µM, first compound 0.01 µM) was 1.12%, the viability, T/C (second compound 1 µM, first compound 0.0316 µM) was 0.75% and the viability, T/C (second compound 3.16 µM, first compound 0.0001 µM) was 0.32%. The viability, T/C (second compound 3.16 µM, first compound 0.000316 µM) was 0.18%, the viability, T/C (second compound 3.16 µM, first compound 0.001 µM) was 0.13% and the viability, T/C (second compound 3.16 µM, first compound 0.00316 µM) was 0.12%. The viability, T/C (second compound 3.16 µM, first compound 0.01 µM) was 0.11% and the viability, T/C (second compound 3.16 µM, first compound 0.0316 µM) was 0.19%.
